Test results as given in patent US11535643B2, “Macrolides with modified desosamine sugars and uses thereof” (President and Fellows of Harvard College, priority 2015, dated 2022).
In brackets after ≈: the same amount, converted by molar mass. Read-outs that look alike come from different tables or passages of the source.

Experiments:
Assay type in all cases: cell-based
[1] = tested on: H. influenzae; test: Broth dilution MIC determination (CLSI) against H. influenzae strains; conditions: Haemophilus influenzae
From the text: Minimum inhibitory concentrations (MICs) for macrolides described herein have been determined for unique strains of S. aureus, S. pneumoniae, S. pyogenes, E. faecalis, E. coli, A. baumannii, K. pneumoniae, P. aeruginosa, and H. influenzae, including several multidrug-resistant strains, with a special focus on macrolide resistant mechanisms. Azithromycin and solithromycin were included as control compounds. CLSI standard procedures for broth dilution MIC determination were used. Data for exemplary compounds described herein is shown in Tables M1-M7 and in Tables N1-N4.

[2] = tested on: P. aeruginosa; test: Broth dilution MIC determination (CLSI) against P. aeruginosa strains; conditions: Pseudomonas aeruginosa
How it was run: (§1)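 Macrolide MICs come from CLSI-standard broth dilution testing of distinct strains, several multidrug-resistant, selected with attention to macrolide resistance mechanisms; two reference macrolides, azithromycin and solithromycin, were included.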

[3] = tested on: K. pneumoniae; test: Broth dilution MIC determination (CLSI) against K. pneumoniae strains; conditions: Klebsiella pneumoniae
How it was run: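 Azithromycin and solithromycin served as controls; MICs were obtained by standard CLSI broth dilution on a strain panel including multidrug-resistant and macrolide-resistant isolates.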

[4] = tested on: E. faecalis; test: Broth dilution MIC determination (CLSI) against E. faecalis strains; conditions: Enterococcus faecalis
How it was run: as §1

[5] = tested on: E. coli; test: Broth dilution MIC determination (CLSI) against E. coli strains; conditions: Escherichia coli
How it was run: as §1

[6] = tested on: S. pyogenes; test: Broth dilution MIC determination (CLSI) against S. pyogenes strains; conditions: Streptococcus pyogenes
How it was run: as §1

[7] = tested on: A. baumannii; test: Broth dilution MIC determination (CLSI) against A. baumannii strains; conditions: Acinetobacter baumannii
How it was run: as §1

[8] = tested on: S. pneumoniae; test: Broth dilution MIC determination (CLSI) against S. pneumoniae strains; conditions: Streptococcus pneumoniae
How it was run: as §1

[9] = tested on: S. aureus; test: Broth dilution MIC determination (CLSI) against S. aureus strains; conditions: Staphylococcus aureus
How it was run: as §1

[10] = ATCC49247, ATCC49247, read-out: MIC H. influenzae ATCC49247
[11] = erythro > 4, azithro 1, read-out: MIC H. influenzae erythro > 4, azithro 1
[12] = ATCC27853, read-out: MIC P. aeruginosa ATCC27853
[13] = read-out: MIC P. aeruginosa HPA101-1477
[14] = ATCC10031, ATCC10031, read-out: MIC K. pneumoniae ATCC10031
[15] = KPC-2, read-out: MIC K. pneumoniae KPC-2
[16] = SHV-12, read-out: MIC K. pneumoniae SHV-12
[17] = TEM-10, read-out: MIC K. pneumoniae TEM-10
[18] = ATCC29212, ATCC29212, read-out: MIC E. faecalis ATCC29212
[19] = Vancomycin-resistant, read-out: MIC E. faecalis Vancomycin-resistant
[20] = ATCC25922, ATCC25922, read-out: MIC E. coli ATCC25922
[21] = read-out: MIC E. coli CTX-M-14, CTX-M-14
[22] = read-out: MIC E. coli NDM-1, NDM-1
[23] = read-out: MIC E. coli TEM-1, TEM-1
[24] = ATCC19615, ATCC19615, read-out: MIC S. pyogenes ATCC19615
[25] = macrolide-resistant, read-out: MIC S. pyogenes macrolide-resistant
[26] = ATCC19606, ATCC19606, read-out: MIC A. baumannii ATCC19606
[27] = IMP-4, read-out: MIC A. baumannii IMP-4
[28] = chromosomal class C, read-out: MIC A. baumannii chromosomal class C
[29] = imipenem-resistant, read-out: MIC A. baumannii imipenem-resistant
[30] = ATCC49619, ATCC49619, read-out: MIC S. pneumoniae ATCC49619
[31] = erm B + mef A genotype, read-out: MIC S. pneumoniae erm B + mef A genotype
[32] = erm B + tet(M, O) genotype, read-out: MIC S. pneumoniae erm B + tet(M, O) genotype
[33] = read-out: MIC S. pneumoniae mef A genotype, mef A genotype
[34] = read-out: MIC S. pneumoniae mef A genotype, mef A genotype, first of two such columns (c3)
[35] = ATCC29213, ATCC29213, read-out: MIC S. aureus ATCC29213
[36] = MRSA / USA100, MRSA: USA100, read-out: MIC S. aureus MRSA: USA100
[37] = MRSA / USA300, MRSA: USA300, read-out: MIC S. aureus MRSA: USA300
[38] = USA600, USA600, GISA, read-out: MIC S. aureus USA600, GISA
[39] = read-out: MIC S. aureus erm A genotype

CC[C@H]1OC(=O)[C@H](C)C(=O)[C@H](C)[C@@H](O[C@@H]2OC(CNC(=O)C(Cl)Cl)CC(N(C)C)C2O)[C@](C)(OC)C[C@@H](C)CN[C@H](C)[C@H]2N(CCCCn3cc(-c4cccc(N)c4)nn3)C(=O)O[C@]12C (some centres unmarked) [FSM-21842]
MIC [1, 10]: 4 µg/mL (≈ 4.19 µM) | MIC [1, 11]: 4 µg/mL (≈ 4.19 µM) | MIC [2, 12]: > 32 µg/mL | MIC [2, 13]: > 32 µg/mL | MIC [3, 14]: 4 µg/mL (≈ 4.19 µM) | MIC [3, 15]: > 32 µg/mL | MIC [3, 16]: > 32 µg/mL | MIC [3, 17]: 32 µg/mL (≈ 33.5 µM) | MIC [4, 18]: 1 µg/mL (≈ 1.05 µM) | MIC [4, 19]: > 32 µg/mL | MIC [5, 20]: 16 µg/mL (≈ 16.8 µM) | MIC [5, 21]: > 32 µg/mL | MIC [5, 22]: 32 µg/mL (≈ 33.5 µM) | MIC [5, 23]: 16 µg/mL (≈ 16.8 µM) | MIC [6, 24]: ≤ 0.0312 µg/mL | MIC [6, 25]: 0.5 µg/mL (≈ 0.524 µM) | MIC [7, 26]: 32 µg/mL (≈ 33.5 µM) | MIC [7, 27]: > 32 µg/mL | MIC [7, 28]: > 32 µg/mL | MIC [7, 29]: > 32 µg/mL | MIC [8, 30]: ≤ 0.0312 µg/mL | MIC [8, 31]: 8 µg/mL | MIC [8, 32]: ≤ 0.0312 µg/mL | MIC [8, 33]: 1 µg/mL (≈ 1.05 µM) | MIC [8, 34]: 0.125 µg/mL (≈ 0.131 µM) | MIC [9, 35]: 4 µg/mL (≈ 4.19 µM) | MIC [9, 36]: > 32 µg/mL | MIC [9, 37]: > 32 µg/mL | MIC [9, 38]: > 32 µg/mL | MIC [9, 39]: > 32 µg/mL

CC[C@H]1OC(=O)[C@H](C)[C@@H](O[C@H]2C[C@@](C)(OC)[C@@H](O)[C@H](C)O2)[C@H](C)[C@@H](O[C@@H]2O[C@H](C)C[C@H](N(C)C)[C@H]2O)[C@](C)(O)C[C@@H](C)CN(C)[C@H](C)[C@@H](O)[C@]1(C)O [Azithromycin, azithromycin, reference compound]
MIC [1, 10]: 0.5 µg/mL (≈ 0.668 µM) | MIC [1, 11]: 0.125 µg/mL (≈ 0.167 µM) | MIC [2, 12]: > 32 µg/mL | MIC [2, 13]: > 32 µg/mL | MIC [3, 14]: 4 µg/mL (≈ 5.34 µM) | MIC [3, 15]: > 32 µg/mL | MIC [3, 16]: 16 µg/mL (≈ 21.4 µM) | MIC [3, 17]: 8 µg/mL (≈ 10.7 µM) | MIC [4, 18]: 4 µg/mL (≈ 5.34 µM) | MIC [4, 19]: > 32 µg/mL | MIC [5, 20]: 4 µg/mL (≈ 5.34 µM) | MIC [5, 21]: > 32 µg/mL | MIC [5, 22]: > 32 µg/mL | MIC [5, 23]: 1 µg/mL (≈ 1.34 µM) | MIC [6, 24]: < 0.0312 µg/mL | MIC [6, 25]: 2 µg/mL (≈ 2.67 µM) | MIC [7, 26]: 16 µg/mL (≈ 21.4 µM) | MIC [7, 27]: > 32 µg/mL | MIC [7, 28]: 32 µg/mL (≈ 42.7 µM) | MIC [7, 29]: 8 µg/mL (≈ 10.7 µM) | MIC [8, 30]: < 0.0312 µg/mL | MIC [8, 31]: > 32 µg/mL | MIC [8, 32]: < 0.0312 µg/mL | MIC [8, 33]: 4 µg/mL (≈ 5.34 µM) | MIC [8, 34]: 0.25 µg/mL (≈ 0.334 µM) | MIC [9, 35]: 1 µg/mL (≈ 1.34 µM) | MIC ([9]; MRSA / USA100, read-out: MIC S. aureus MRSA: USA100): > 32 µg/mL | MIC ([9]; MRSA / USA300, read-out: MIC S. aureus MRSA: USA300): 32 µg/mL (≈ 42.7 µM) | MIC [9, 38]: > 32 µg/mL | MIC [9, 39]: > 32 µg/mL

CC[C@H]1OC(=O)[C@H](C)C(=O)[C@H](C)[C@@H](O[C@@H]2OC(CNC(=O)CN)CC(N(C)C)C2O)[C@](C)(OC)C[C@@H](C)CN[C@H](C)[C@H]2N(CCCCn3cc(-c4cccc(N)c4)nn3)C(=O)O[C@]12C (some centres unmarked) [FSM-21878]
MIC [1, 10]: > 32 µg/mL | MIC [1, 11]: 32 µg/mL (≈ 35.6 µM) | MIC [2, 12]: > 32 µg/mL | MIC [3, 14]: 16 µg/mL (≈ 17.8 µM) | MIC [3, 15]: > 32 µg/mL | MIC [4, 18]: 16 µg/mL (≈ 17.8 µM) | MIC [4, 19]: > 32 µg/mL | MIC [5, 20]: > 32 µg/mL | MIC [5, 22]: > 32 µg/mL | MIC [6, 24]: < 0.0313 µg/mL | MIC [6, 25]: 4 µg/mL (≈ 4.44 µM) | MIC [7, 26]: > 32 µg/mL | MIC [7, 29]: > 32 µg/mL | MIC [8, 30]: < 0.0313 µg/mL | MIC [8, 31]: 4 µg/mL | MIC [8, 32]: < 0.0313 µg/mL | MIC [8, 33]: 8 µg/mL (≈ 8.89 µM) | MIC [8, 34]: 0.5 µg/mL (≈ 0.555 µM) | MIC [9, 35]: 32 µg/mL (≈ 35.6 µM) | MIC [9, 36]: > 32 µg/mL | MIC [9, 37]: > 32 µg/mL | MIC [9, 38]: > 32 µg/mL | MIC [9, 39]: > 32 µg/mL
